Measured values: PubChem BioAssay AID1963842 (Molecular Pharmacology Branch, DTP, NCI, 2024)

Test system: 677734-321-R-J1-PDC complex spheroid viability
Test: Anticancer human tumor 677734-321-R-J1-PDC patient-derived soft tissue sarcoma cell line growth inhibition [POLQ]
Details: for IC50: curve of first compound; for viability, T/C: stronger effect = lower value
Procedure, shortened: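 Three-cell-type spheroids modelling solid tumor plus stroma served as the readout system; POL inhibitors were tested individually and in combination, concentration ranges set by clinical Cmax where known.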

[1] = second compound 0.0316 µM, first compound 0.0316 µM
[2] = second compound 0.0316 µM, first compound 0.1 µM
[3] = second compound 0.0316 µM, first compound 0.316 µM
[4] = second compound 0.0316 µM, first compound 1 µM
[5] = second compound 0.0316 µM, first compound 3.16 µM
[6] = second compound 0.0316 µM, first compound 10 µM
[7] = second compound 0.1 µM, first compound 0.0316 µM
[8] = second compound 0.1 µM, first compound 0.1 µM
[9] = second compound 0.1 µM, first compound 0.316 µM
[10] = second compound 0.1 µM, first compound 1 µM
[11] = second compound 0.1 µM, first compound 3.16 µM
[12] = second compound 0.1 µM, first compound 10 µM
[13] = second compound 0.316 µM, first compound 0.0316 µM
[14] = second compound 0.316 µM, first compound 0.1 µM
[15] = second compound 0.316 µM, first compound 0.316 µM
[16] = second compound 0.316 µM, first compound 1 µM
[17] = second compound 0.316 µM, first compound 3.16 µM
[18] = second compound 0.316 µM, first compound 10 µM
[19] = second compound 1 µM, first compound 0.0316 µM
[20] = second compound 1 µM, first compound 0.1 µM
[21] = second compound 1 µM, first compound 0.316 µM
[22] = second compound 1 µM, first compound 1 µM
[23] = second compound 1 µM, first compound 3.16 µM
[24] = second compound 1 µM, first compound 10 µM
[25] = second compound 3.16 µM, first compound 0.0316 µM
[26] = second compound 3.16 µM, first compound 0.1 µM
[27] = second compound 3.16 µM, first compound 0.316 µM
[28] = second compound 3.16 µM, first compound 1 µM
[29] = second compound 3.16 µM, first compound 3.16 µM
[30] = second compound 3.16 µM, first compound 10 µM
[31] = second compound 10 µM, first compound 0.0316 µM
[32] = second compound 10 µM, first compound 0.1 µM
[33] = second compound 10 µM, first compound 0.316 µM
[34] = second compound 10 µM, first compound 1 µM
[35] = second compound 10 µM, first compound 3.16 µM
[36] = second compound 10 µM, first compound 10 µM
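Also: spheroids exposed to compounds for one week.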
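For viability, T/C in this document: 100% = vehicle DMSO treated spheroids.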

CC1COCCN1c1cc(C2(O)CC3CCC(C2)O3)c2cnn(-c3ccn[nH]3)c2n1 (stereo unspecified) + Cc1cccc(N(C)C(=O)C2C(O)CCN2c2nc(C)cc(C(F)(F)F)c2C#N)c1
IC50 (second compound 0.0316 µM): 0.0962 µM
IC50 (second compound 0.1 µM): 0.122 µM
IC50 (second compound 0.316 µM): 0.0957 µM
IC50 (second compound 1 µM): 0.0991 µM
IC50 (second compound 3.16 µM): 0.0832 µM
IC50 (second compound 10 µM): 0.0803 µM
viability, T/C [1]: 76.5%
viability, T/C [2]: 49%
viability, T/C [3]: 26.5%
viability, T/C [4]: 19%
viability, T/C [5]: 17.3%
viability, T/C [6]: 17.8%
viability, T/C [7]: 87.8%
viability, T/C [8]: 54.8%
viability, T/C [9]: 27.2%
viability, T/C [10]: 22.5%
viability, T/C [11]: 22.2%
viability, T/C [12]: 16.9%
viability, T/C [13]: 83.6%
viability, T/C [14]: 48.9%
viability, T/C [15]: 28.1%
viability, T/C [16]: 21%
viability, T/C [17]: 18.3%
viability, T/C [18]: 15.2%
viability, T/C [19]: 94.2%
viability, T/C [20]: 49.6%
viability, T/C [21]: 26.1%
viability, T/C [22]: 18%
viability, T/C [23]: 17.4%
viability, T/C [24]: 16.4%
viability, T/C [25]: 85.5%
viability, T/C [26]: 43.4%
viability, T/C [27]: 25.1%
viability, T/C [28]: 18.4%
viability, T/C [29]: 28.6%
viability, T/C [30]: 14%
viability, T/C [31]: 85.6%
viability, T/C [32]: 41.3%
viability, T/C [33]: 24.2%
viability, T/C [34]: 21.8%
viability, T/C [35]: 16.9%
viability, T/C [36]: 15.7%

CCc1cc2c(N3CCc4c(cc(Cn5ccnc5)cc4-c4cn(C)nc4C(F)(F)F)C3=O)cc(C)nc2c(OC)n1 + Cc1cccc(N(C)C(=O)C2C(O)CCN2c2nc(C)cc(C(F)(F)F)c2C#N)c1
IC50 (second compound 0.0316 µM): 6.44 µM
IC50 (second compound 0.1 µM): 5.35 µM
IC50 (second compound 0.316 µM): 4.3 µM
IC50 (second compound 1 µM): 5.15 µM
IC50 (second compound 3.16 µM): 3.65 µM
IC50 (second compound 10 µM): 2.27 µM
viability, T/C [1]: 104%
viability, T/C [2]: 116%
viability, T/C [3]: 84%
viability, T/C [4]: 94%
viability, T/C [5]: 65.5%
viability, T/C [6]: 39.3%
viability, T/C [7]: 97.3%
viability, T/C [8]: 94.7%
viability, T/C [9]: 99.7%
viability, T/C [10]: 75.6%
viability, T/C [11]: 66.3%
viability, T/C [12]: 33.1%
viability, T/C [13]: 92.4%
viability, T/C [14]: 102%
viability, T/C [15]: 98.8%
viability, T/C [16]: 81.8%
viability, T/C [17]: 58.8%
viability, T/C [18]: 28.5%
viability, T/C [19]: 111%
viability, T/C [20]: 106%
viability, T/C [21]: 92.2%
viability, T/C [22]: 88.1%
viability, T/C [23]: 62.7%
viability, T/C [24]: 31.6%
viability, T/C [25]: 101%
viability, T/C [26]: 98.6%
viability, T/C [27]: 94%
viability, T/C [28]: 82.3%
viability, T/C [29]: 52.1%
viability, T/C [30]: 31.8%
viability, T/C [31]: 92.5%
viability, T/C [32]: 76.1%
viability, T/C [33]: 70.4%
viability, T/C [34]: 58.4%
viability, T/C [35]: 48.1%
viability, T/C [36]: 34.1%

COc1cc2cc(C(=O)CCC(=O)O)sc2cc1OC + Cc1cccc(N(C)C(=O)C2C(O)CCN2c2nc(C)cc(C(F)(F)F)c2C#N)c1
IC50 (second compound 0.0316 µM): > 10 µM
IC50 (second compound 0.1 µM): > 10 µM
IC50 (second compound 0.316 µM): > 10 µM
IC50 (second compound 1 µM): > 10 µM
IC50 (second compound 3.16 µM): > 10 µM
IC50 (second compound 10 µM): > 10 µM
viability, T/C [1]: 104%
viability, T/C [2]: 87.6%
viability, T/C [3]: 97.2%
viability, T/C [4]: 101%
viability, T/C [5]: 110%
viability, T/C [6]: 92.4%
viability, T/C [7]: 92.8%
viability, T/C [8]: 87%
viability, T/C [9]: 92%
viability, T/C [10]: 107%
viability, T/C [11]: 103%
viability, T/C [12]: 86%
viability, T/C [13]: 115%
viability, T/C [14]: 94.8%
viability, T/C [15]: 89.6%
viability, T/C [16]: 87.8%
viability, T/C [17]: 101%
viability, T/C [18]: 74.5%
viability, T/C [19]: 86.4%
viability, T/C [20]: 77.4%
viability, T/C [21]: 89.2%
viability, T/C [22]: 99.7%
viability, T/C [23]: 81.3%
viability, T/C [24]: 70.7%
viability, T/C [25]: 96.2%
viability, T/C [26]: 87.1%
viability, T/C [27]: 84.4%
viability, T/C [28]: 102%
viability, T/C [29]: 83.1%
viability, T/C [30]: 82.3%
viability, T/C [31]: 77.1%
viability, T/C [32]: 91.8%
viability, T/C [33]: 77.4%
viability, T/C [34]: 79.4%
viability, T/C [35]: 88.7%
viability, T/C [36]: 85.8%
